A short description of data set [1]: In vitro bioavailability, dialysis tubing procedure with pepsin and pancreatin digestion. The data set is classed as in vitro ADME. Particulars: for In vitro bioavailability (%) 4 h pH 7.0: after pancreatin digestion (4 h); for In vitro bioavailability (%) 2 h pH 1.0: after pepsin digestion (2 h); for In vitro bioavailability (%) Total 6 h: total after pepsin (2 h) and pancreatin (4 h) digestions. The protocol:
In vitro bioavailability studies of compounds 3, 4 (the salt of compound 3) and resveratrol were performed in solutions simulating gastric and intestinal environment through a modified version of the traditional technique of dialysis membranes. The method of the dialysis membrane is divided in two enzymatic digestion phases: A first phase in which the action of pepsin occurs and a second phase in which participates the pancreatin (see experimental section). Bioavailability is defined as the percentage of analyte recovered in the bio-accessible fraction after in vitro digestion, in relation to the original undigested sample, as calculated according to the following equation [32]:Bioavailability (%) = (Bioaccessible content/Total content) × 100
In vitro bioavailability studies were performed according to the dialysis tubing procedure as previously reported in literature.
For this purpose, 100 µL of each tested compound (10 mM in DMSO) were employed and the concentration of each sample was determined using a UV/VIS spectrometer V-530 (Jasco, Cremella (LC), Italy).
The percentages were calculated according to the equations obtained from the prepared calibration curves at pH 1.0 and 7.0, respectively, for the two tested molecules.
The experiments were carried out in triplicate.

In the next data set the target is T1, human topoisomerase II (Homo sapiens, UniProt P11388).
T1 construct: purchased TopoGEN, Port Orange, FL, USA
Briefly: Human topoisomerase II (hTopoII) decatenation assay. It counts as biochemical. Particulars: 50 μM. The method, then: Human topoisomerase II decatenation assays were carried out incubating the human topoisomerase II (TopoGEN, Port Orange, FL, USA) with kinetoplast DNA (used as substrate) and all the tested compounds, according to the guidelines of the manufacturer (TopoGEN, Port Orange, FL, USA), with some modifications.

The next data set deals with MCF-7 cells. Briefly: TUNEL assay in MCF-7 cells. The data set is classed as cell-based, human. The method, then: (§1) Cell apoptosis was determined by TdT-mediated dUTP Nick-End Labeling (TUNEL) assay, conducted using DeadEnd Fluorometric TUNEL System (Promega, Milan, Italy) and performed according to the manufacturer’s instructions. […] After fixation, cells were permeabilized in 0.2% Triton X-100 solution in PBS for 5 min. After washing twice with washing buffer for 5 min, the cells were covered with equilibration buffer at room temperature for 5–10 min. The labeling reaction was performed using terminal deoxynucleotidyl transferase end-labeling TdT and fluorescein-dUTP cocktail for each sample and incubated for 1 h at 37 ◦C where TdT catalyzes the binding of fluorescein-dUTP to free 3′OH ends in the nicked DNA. After rinsing, cells were washed with 2 × SSC solution buffer and subsequently incubated with 4′,6-Diamidino-2-Phenylindole (DAPI, Sigma-Aldrich, Milan, Italy) to stain nuclei and analyzed using the Cytation 3 Cell Imaging Multimode Reader (BioTek, Winooski, VT, USA). Statistical analysis was done using ANOVA followed by Newman–Keuls’ testing to determine differences in means. p < 0.05 was considered as statistically significant.

The subject of the next data set is SkBr3 cells. Nature of the data set: TUNEL assay in SkBr3 cells. It counts as cell-based, human. The method, then:
as §1

Data set [2] has as its system MCF-7 breast cancer cells. Nature of the data set: MTT cell viability assay in MCF-7 cells. Particulars: Homo sapiens. The data set is classed as cell-based. The protocol:
(§2) SkBr3 cells were maintained in RPMI-1640 (Life Technologies, Milan, Italy) without phenol red, supplemented with 5% fetal bovine serum (FBS) and 100 μg/mL penicillin/streptomycin (Life Technologies, Milan, Italy). MCF-7 and HEK-293 cells were maintained in DMEM (Dulbecco’s modified Eagle’s medium) (Life Technologies, Milan, Italy) with phenol red, with a supplement of 5% FBS and 100 μg/mL of penicillin/streptomycin.
(§3) The effects of each compound on cell viability were determined by the MTT [3-(4,5-dimethylthiazol-2-yl)-2,5-diphenyltetrazolium bromide] assay, as previously reported. Cells were seeded in quadruplicate in 96-well plates in regular growth medium and grown until 70–80% confluence. […] Relative cell viability was determined by MTT assay according to the manufacturer’s protocol (Sigma-Aldrich, Milan, Italy). Mean absorbance for each drug dose was expressed as a percentage of the control untreated well absorbance and plotted versus drug concentration. IC50 values represent the drugs concentration able to reduce the cells viability of 50% respect to the untreated control cells (vehicle).

Another data set deals with T2, recombinant human topo I (Homo sapiens, UniProt P11387).
T2 construct: purchased TopoGEN, Port Orange, FL, USA
T2 sequence (P11387 1-765): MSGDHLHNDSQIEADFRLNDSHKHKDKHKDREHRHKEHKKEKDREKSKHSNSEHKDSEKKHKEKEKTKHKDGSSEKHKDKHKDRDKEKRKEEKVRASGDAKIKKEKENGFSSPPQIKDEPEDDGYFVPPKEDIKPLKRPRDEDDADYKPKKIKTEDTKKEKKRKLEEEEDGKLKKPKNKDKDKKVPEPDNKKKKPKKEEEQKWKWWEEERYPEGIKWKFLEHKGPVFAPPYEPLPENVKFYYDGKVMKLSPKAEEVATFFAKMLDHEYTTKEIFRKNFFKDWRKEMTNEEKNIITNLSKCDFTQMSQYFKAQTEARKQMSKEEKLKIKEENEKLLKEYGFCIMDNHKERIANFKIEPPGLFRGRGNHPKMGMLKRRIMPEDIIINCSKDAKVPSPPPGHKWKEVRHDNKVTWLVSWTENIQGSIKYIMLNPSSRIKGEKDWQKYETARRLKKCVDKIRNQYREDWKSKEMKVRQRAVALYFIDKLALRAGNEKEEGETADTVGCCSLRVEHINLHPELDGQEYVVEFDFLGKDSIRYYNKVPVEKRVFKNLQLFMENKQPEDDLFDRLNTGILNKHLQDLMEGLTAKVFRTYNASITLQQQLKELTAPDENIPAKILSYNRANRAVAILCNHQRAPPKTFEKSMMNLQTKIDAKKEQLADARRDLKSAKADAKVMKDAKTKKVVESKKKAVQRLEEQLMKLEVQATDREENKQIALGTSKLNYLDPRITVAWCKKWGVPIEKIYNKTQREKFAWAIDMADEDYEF
Briefly: Human topoisomerase I (hTopoI) relaxation assay. It counts as biochemical. Particulars: 50 μM. The method, then:
Human topoisomerase I relaxation assays were performed incubating the supercoiled pHOT1 (used as substrate) with the recombinant human topo I (TopoGEN, Port Orange, FL, USA) and all the tested compounds, according to the guidelines of the manufacturer (TopoGEN, Port Orange, FL, USA), with some modifications.

The subject of data set [3] is human embryonic kidney 293 (HEK293) cells. Nature of the data set: MTT cell viability assay in HEK293 cells. Particulars: for IC50: Homo sapiens, HEK293, 48 h treatment, MTT assay, read-out: IC50 (µM) ± S.D. HEK293; for Anti-proliferative / inhibitory effects in non-tumoral HEK293 cells: result in words. It counts as cell-based. The method, then:
as §2, §3

Data set [4] concerns SkBr3 breast cancer cells. Briefly: MTT cell viability assay in SkBr3 cells. It counts as cell-based. Particulars: Homo sapiens. The protocol:
as §2, §3
A general note: Tetrazolium assays rely on reduction of a dye to a coloured formazan, in cell work by metabolically active cells.

Setting [5] is: MCF7, 48 h treatment, read-out: IC50 (µM) ± S.D. MCF-7.
[6] abbreviates: SK-BR-3, 48 h treatment, read-out: IC50 (µM) ± S.D. SkBr3.
Where [7] appears, read: 50 µM for 48 h (data not shown).

Several values for one entry are separate records, joined by “and”; a condition that tells them apart may be missing. Identical values can stand only once. Entries after “also recorded” stand apart in the source; their conditions may differ. Like-named read-outs stand apart in the source and are kept apart here.

A word on the IC50: it is the point on the concentration scale where inhibition reaches its midpoint.

T1 sequence (P11388 whole entry): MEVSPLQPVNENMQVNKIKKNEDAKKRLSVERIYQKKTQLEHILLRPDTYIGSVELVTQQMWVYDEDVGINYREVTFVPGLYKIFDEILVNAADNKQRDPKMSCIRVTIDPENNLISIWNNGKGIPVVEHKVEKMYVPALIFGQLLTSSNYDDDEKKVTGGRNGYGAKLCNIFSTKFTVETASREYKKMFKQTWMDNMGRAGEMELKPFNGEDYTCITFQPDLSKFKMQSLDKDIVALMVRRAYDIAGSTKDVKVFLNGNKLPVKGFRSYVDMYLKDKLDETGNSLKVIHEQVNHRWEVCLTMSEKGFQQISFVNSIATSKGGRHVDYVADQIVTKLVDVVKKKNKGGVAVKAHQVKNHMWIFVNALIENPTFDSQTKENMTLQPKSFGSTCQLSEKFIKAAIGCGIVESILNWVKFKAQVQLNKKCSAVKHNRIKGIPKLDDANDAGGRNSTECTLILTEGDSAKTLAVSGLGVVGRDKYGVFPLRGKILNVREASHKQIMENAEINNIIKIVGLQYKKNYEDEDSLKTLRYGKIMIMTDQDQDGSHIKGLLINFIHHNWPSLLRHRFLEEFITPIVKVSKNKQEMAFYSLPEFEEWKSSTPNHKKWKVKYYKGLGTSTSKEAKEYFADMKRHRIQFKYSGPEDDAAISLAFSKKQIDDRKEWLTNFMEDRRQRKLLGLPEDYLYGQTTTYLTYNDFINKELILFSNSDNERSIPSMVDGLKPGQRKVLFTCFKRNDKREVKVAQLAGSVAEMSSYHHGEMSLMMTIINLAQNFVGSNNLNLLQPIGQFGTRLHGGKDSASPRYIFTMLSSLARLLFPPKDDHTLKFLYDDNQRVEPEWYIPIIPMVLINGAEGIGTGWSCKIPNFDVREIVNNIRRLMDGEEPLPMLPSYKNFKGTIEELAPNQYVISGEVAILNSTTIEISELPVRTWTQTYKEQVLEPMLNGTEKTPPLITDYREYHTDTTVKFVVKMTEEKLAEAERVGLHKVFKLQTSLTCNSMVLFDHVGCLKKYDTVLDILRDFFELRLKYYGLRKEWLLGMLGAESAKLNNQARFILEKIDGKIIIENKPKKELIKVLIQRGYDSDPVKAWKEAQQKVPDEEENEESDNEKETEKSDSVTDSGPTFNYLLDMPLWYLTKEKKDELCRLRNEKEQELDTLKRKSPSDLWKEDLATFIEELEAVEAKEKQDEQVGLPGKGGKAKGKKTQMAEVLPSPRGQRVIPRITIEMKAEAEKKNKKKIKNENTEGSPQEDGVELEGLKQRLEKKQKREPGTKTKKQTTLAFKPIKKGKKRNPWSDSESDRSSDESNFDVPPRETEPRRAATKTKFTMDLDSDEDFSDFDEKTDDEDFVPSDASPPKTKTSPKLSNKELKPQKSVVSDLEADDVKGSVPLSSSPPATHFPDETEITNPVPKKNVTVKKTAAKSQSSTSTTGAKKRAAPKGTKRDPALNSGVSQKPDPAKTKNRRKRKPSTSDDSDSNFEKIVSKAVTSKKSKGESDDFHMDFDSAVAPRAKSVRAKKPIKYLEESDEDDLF

With `O=C(O)c1ccc(/N=C/c2cc(O)ccc2O)cc1` [Compound 3, (E)-4-(2,5-dihydroxybenzylidene)-imino-benzoic acid], in data set [1], the “In vitro bioavailability (%) 4 h pH 7.0” value was 31% and 31 ± 1.1%; the “In vitro bioavailability (%) 2 h pH 1.0” value was 16% and 16 ± 0.7%; the “In vitro bioavailability (%) Total 6 h” value is 47% and 47 ± 1.6%. Moreover, the “Inhibition of hTopoII activity (kDNA decatenation)” value (shortened to “Inhibition of hTopoII activity”) at human topoisomerase II is listed as “able to inhibit”. Also, the “Percentage of TUNEL-positive cells, MCF-7” value with MCF-7 cells (10 μM for 24 h, versus vehicle) is reported as “increased the percentage”. Besides, the “Percentage of TUNEL-positive cells, SkBr3” value with SkBr3 cells (10 μM for 24 h, versus vehicle) was “increased the percentage”. Further, the concentration for half-maximal inhibition (IC50) in data set [2] (setting [5]) was 12 µM. Besides, the “Inhibition of hTopoI (relaxation of supercoiled DNA)” value at recombinant human topo I is “no inhibition of hTopoI was observed”. Moreover, in data set [3], the IC50 was over 90 µM and the “Anti-proliferative / inhibitory effects in non-tumoral HEK293 cells” value is reported as “did not elicit inhibitory effects; also recorded: did not induce inhibitory effects”. Also, in data set [4] (setting [6]), the IC50 stood at 15 µM.
Turning to `O=C(O)c1ccc(/N=C/c2cc(O)ccc2O)cc1` [Compound 4, (E)-4-(2,5-dihydroxybenzylidene)-imino-sodium benzoate], in data set [1], the “In vitro bioavailability (%) 4 h pH 7.0” value was 28% and 28 ± 0.9%; the “In vitro bioavailability (%) 2 h pH 1.0” value was 17% and 17 ± 0.8%; the “In vitro bioavailability (%) Total 6 h” value is 45% and 45 ± 1.3%. For the same compound, the “Inhibition of hTopoII activity” value at human topoisomerase II was “able to inhibit”. Moreover, the “TUNEL staining, MCF-7” value with MCF-7 cells (setting [7]) is recorded as “positive for TUNEL staining”. Moreover, the “TUNEL staining, SkBr3” value in the data set with SkBr3 cells (setting [7]) was “positive for TUNEL staining”. The IC50 in data set [2] (MCF7, treatment time not given, read-out: IC50, cytotoxic activity, MCF-7) came to 50 µM. For the same compound, the “Inhibition of hTopoI (relaxation of supercoiled DNA)” value on recombinant human topo I is “no inhibition of hTopoI was observed”. Besides, the “Anti-proliferative / inhibitory effects in non-tumoral HEK293 cells” value in data set [3] is recorded as “did not elicit anti-proliferative effects; also recorded: did not induce inhibitory effects”. The half-maximal inhibitory concentration (IC50) in data set [4] (SK-BR-3, treatment time not given, read-out: IC50, cytotoxic activity, SkBr3) was determined as 62 µM.
Regarding `O=C(O)c1ccc(/N=C/c2cc(O)cc(O)c2)cc1` [Compound 6, (E)-4-(3,5-dihydroxybenzylidene)-imino-benzoic acid], the half-maximal inhibitory concentration (IC50) in data set [2] (setting [5]), in data set [3] and in data set [4] (setting [6]) was over 90 µM in each case.
Take `Oc1ccc(C=Cc2cc(O)cc(O)c2)cc1` [resveratrol, 3, 4′,5-trihydroxy-stilbene]: in data set [1], the “In vitro bioavailability (%) 4 h pH 7.0” value was found to be 23 ± 0.8%; the “In vitro bioavailability (%) 2 h pH 1.0” value amounted to 12 ± 0.6%; the “In vitro bioavailability (%) Total 6 h” value was 35% and 35 ± 1.1%. The “Inhibition of hTopoII activity” value at human topoisomerase II was “inhibited the hTopoII”. Also, in data set [2] (setting [5]), the IC50 is over 90 µM. Moreover, on recombinant human topo I, the “Inhibition of hTopoI (relaxation of supercoiled DNA)” value is reported as “no inhibition of hTopoI was observed”. Besides, in data set [3], the IC50 was over 90 µM. Besides, in data set [4] (setting [6]), the IC50 was over 90 µM.

For the origin of these results see article PMC7589783, “Newly Synthesized Imino-Derivatives Analogues of Resveratrol Exert Inhibitory Effects in Breast Tumor Cells” (International Journal of Molecular Sciences, 2020).
